# Patent publication US20210337791A1, “Methods For Killing Insects Such As Drosophila species” (The United States of America, as represented by the …, priority 2020, published 2021)
# Assays:
# Drosophila suzukii = experiment: Feeding test of D. suzukii adults with tyramine or M-tyramine sucrose solutions (fly mortality); assay type: in vivo; conditions: 7 days; for fly mortality, first and second experiments: 1% solution in 0.5 M sucrose; for mortality: 4% compound in 0.5 M sucrose
# Experimental: Flies and sugars: Drosophila suzukii used in these experiments were from a colony maintained at 22±5° C. under a photoperiod of L:D 16:8 h and a relative humidity of 60±5% RH at the Horticultural Crops Research Unit, USDA ARS in Corvallis, Oreg. Wildtype flies collected from infested fruits in Corvallis, Oreg., were used to start the colony. Standard rearing methods and diet are described by Woltz et al. (Journal of Applied Entomology, 139: 759-770 (2015)). Newly emerged adult males and females were collected daily and maintained in cages with water and diet until they were specific ages for experimentation.
# The chemical components were tyramine (98%, Sigma-Aldrich), N-methyl-tyramine (shortened name=M-tyramine), 95%, Combi-Blocks, Inc.), and sucrose (>99%, Fisher Scientific, Hampton, N.H.).
# The effect of tyramine and M-tyramine formulations on fly mortality-I: Ten 5-day old flies (5 males and 5 females) were introduced into a plastic vial and given a tube (1.5 ml) containing different water-based solutions (FIG. 1). For the first experiment various pairs were tested (FIG. 2A): (a) Sucrose 0.5 M only; (b) Tyramine 0.1%+Sucrose 0.5 M (0.1% Tyramine); (c) Tyramine 1%+Sucrose 0.5 M (1% Tyramine); (d) M-Tyramine 0.1%+Sucrose 0.5 M (0.1% M-Tyramine); and (e) M-Tyramine 1%+Sucrose 0.5 M (1% M-Tyramine).
# The effect of tyramine and M-tyramine formulations on fly mortality-II: The second experiment consisted of the following (FIG. 2B): (a) Sucrose 0.5 M only; (b) Tyramine 1%+Sucrose 0.5 M (1% Tyramine); (c) Tyramine 2%+Sucrose 0.5 M (2% Tyramine); (d) M-Tyramine 1%+Sucrose 0.5 M (1% M-Tyramine), and (e) M-Tyramine 2%+Sucrose 0.5 M (2% M-Tyramine).
# The effect of tyramine and M-tyramine formulations on fly mortality-III: The third experiment consisted of the following (FIG. 2C): (a) Sucrose 0.5 M only; (b) Tyramine 2%+Sucrose 0.5 M (2% Tyramine); (c) Tyramine 4%+Sucrose 0.5 M (4% Tyramine); (d) M-Tyramine 2%+Sucrose 0.5 M (2% M-Tyramine); and (e) M-Tyramine 4%+Sucrose 0.5 M (4% M-Tyramine). Survivorship of flies was checked daily for 7 days. Each pair per experiment was replicated at least eight times.
# Aqueous solubility = assay type: physicochemical
# Text: By the term “effective amount” of a compound or property as provided herein is meant such amount as is capable of performing the function of the compound or property for which an effective amount is expressed. As will be pointed out below, the exact amount required will vary from process to process, depending on recognized variables such as the compounds employed and the processing conditions observed. Thus, it is not possible to specify an exact “effective amount.” However, an appropriate effective amount may be determined by one of ordinary skill in the art using only routine experimentation. Generally the concentration of the compounds will be, but not limited to, at least about 0.1% (e.g., at least 0.1%; for example in an aqueous solution), at least about 1% (e.g., at least 1%), preferably at least about 2% (e.g., at least 2%), preferably at least about 3% (e.g., at least 3%), preferably at least about 4% (e.g., at least 4%). […] However, higher concentrations than the limits shown could be obtained using solubilizing agents (e.g., DMSO of DMF) or chelating agents; for example, at least about 5% (e.g., at least 5%), preferably at least about 6% (e.g., at least 6%), preferably at least about 7% (e.g., at least 7%), preferably at least about 8% (e.g., at least 8%), preferably at least about 9% (e.g., at least 9%), and preferably at least about 10% (e.g., at least 10%). Concentrations lower than about 2% would require longer duration of exposure, such as the composition in a bait station to which the target insects have long term access to, thus increasing the total dose.
# fire ant = experiment: Feeding of biogenic amines to fire ants (worker and queen mortality); assay type: in vivo; conditions: for fire ant worker mortality versus sucrose controls: biogenic amines all formulated at 1.0%
# tawny crazy ant workers = experiment: Pest ant specificity of tyramine using tawny crazy ant workers; assay type: in vivo
Compound,"fly mortality, first and second experiments (Drosophila suzukii)",mortality (Drosophila suzukii),aqueous solubility (upper limit) (Aqueous solubility; free base),aqueous solubility (upper limit) (Aqueous solubility; salt form),fire ant worker mortality versus sucrose controls (fire ant),other results
"CNCCc1ccc(O)cc1 [M-tyramine, N-methyl-tyramine]",not statistically consistent,100%,~3.4%,about 10%,,
NCCc1ccc(O)c(O)c1 [dopamine],,,,,no different than the sucrose controls,
NCCc1c[nH]cn1 [histamine],,,,,no different than the sucrose controls,
NCC(O)c1ccc(O)cc1 (centres unmarked) [octopamine],,,,,no different than the sucrose controls,
NCCc1c[nH]c2ccc(O)cc12 [serotonin],,,,,no different than the sucrose controls,
NCCc1ccc(O)cc1 [tyramine],not statistically consistent,100%,about 1%,about 5%,significant fire ant worker mortality,"mortality of tawny crazy ant workers versus controls (tawny crazy ant workers): did not result in mortality greater than the controls; fly mortality versus 0.5 M sucrose negative control (Drosophila suzukii; 0.1% solution in 0.5 M sucrose): not significantly different; mortality in small lab colonies (fire ant; tyramine fed to small lab fire ant colonies): worker and queen fire ant mortality; fire ant worker mortality (fire ant; workers fed 1.0, 0.1, and 0.01% wt(g)/vol(L)): significant mortality"
